This note sets out measurements from ChEMBL document CHEMBL1142334, “Discovery of a novel class of selective human CB1 inverse agonists” (Bioorg Med Chem Lett, 2008).

The target of assay [1] is T1, Cannabinoid receptor 1 (Homo sapiens, UniProt P21554). In words: Displacement of radioligand from human CB1 receptor expressed in HEK293 cells. In kind it is cell-based.
Another assay addresses Cannabinoid receptor 2 (Homo sapiens, UniProt P34972). The assay can be described thus: Displacement of radioligand from human CB2 receptor expressed in HEK293 cells. In kind it is cell-based.
Assay [2] deals with T1, Cannabinoid receptor 1. The assay can be described thus: Displacement of radioligand from human CB1 receptor expressed in HEK293 cells at 10 uM. In kind it is cell-based.
For another assay, the species on record is Homo sapiens. The assay can be described thus: Selectivity ratio, Ki for human CB2 receptor to Ki for human CB1 receptor.
In assay [3] the target is T1, Cannabinoid receptor 1. In words: Inverse agonist activity at human CB1 receptor expressed in HEK293 EBNA cells by [35S]GTPgammaS incorporation assay. In kind it is functional, cell-based. In general terms: GTPγS is a poorly hydrolysed GTP analogue; its binding reports G protein activation.

Sequence of Cannabinoid receptor 2 (P34972 whole entry): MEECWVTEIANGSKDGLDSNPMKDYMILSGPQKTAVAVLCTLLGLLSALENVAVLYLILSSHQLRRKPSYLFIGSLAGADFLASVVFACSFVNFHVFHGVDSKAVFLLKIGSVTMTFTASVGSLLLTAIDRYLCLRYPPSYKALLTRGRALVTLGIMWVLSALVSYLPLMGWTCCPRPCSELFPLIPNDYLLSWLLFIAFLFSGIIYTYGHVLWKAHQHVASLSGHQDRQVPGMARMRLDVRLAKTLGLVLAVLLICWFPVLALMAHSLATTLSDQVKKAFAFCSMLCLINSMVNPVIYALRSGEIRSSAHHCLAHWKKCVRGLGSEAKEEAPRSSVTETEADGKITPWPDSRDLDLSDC
T1 sequence (P21554 whole entry): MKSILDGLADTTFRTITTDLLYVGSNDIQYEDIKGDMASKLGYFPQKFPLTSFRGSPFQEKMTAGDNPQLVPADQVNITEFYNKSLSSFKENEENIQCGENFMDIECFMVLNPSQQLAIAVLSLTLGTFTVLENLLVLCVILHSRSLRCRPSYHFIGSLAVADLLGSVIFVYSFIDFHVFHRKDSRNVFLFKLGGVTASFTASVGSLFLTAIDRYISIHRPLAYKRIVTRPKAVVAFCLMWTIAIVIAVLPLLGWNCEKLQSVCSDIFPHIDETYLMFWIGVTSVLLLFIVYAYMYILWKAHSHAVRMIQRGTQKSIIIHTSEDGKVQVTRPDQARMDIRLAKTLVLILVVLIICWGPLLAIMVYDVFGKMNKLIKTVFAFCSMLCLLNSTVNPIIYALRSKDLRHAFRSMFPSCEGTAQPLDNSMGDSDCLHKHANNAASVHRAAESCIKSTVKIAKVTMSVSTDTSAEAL

Take `Cc1c(C(=O)N2CCCCCC2)oc2ccc(S(=O)(=O)N3CC(C)CC(C)C3)cc12` (stereo not drawn): the Ki (as a rule, a measure of affinity in units of concentration, obtained from inhibition or displacement) was found to be 0.193 µM on Cannabinoid receptor 1 [1] and 4.9 µM on Cannabinoid receptor 2. For the same compound, the inhibition (in general, the percentage by which the read-out fell short of the control) at Cannabinoid receptor 1 [2] is 90%. Also, the Ratio Ki in the assay listed under Homo sapiens stood at 25.

In turn, `Cc1c(C(=O)N2CCN(C)CC2)oc2ccc(S(=O)(=O)N3CC(C)CC(C)C3)cc12` (stereo not drawn) displayed an inhibition at Cannabinoid receptor 1 [2] of 27%.

`Cc1c(C(=O)NCCc2ccccc2)oc2ccc(S(=O)(=O)N3CC(C)CC(C)C3)cc12` (stereo not drawn): the figures for the Ki at Cannabinoid receptor 1 [1] and at Cannabinoid receptor 2 were 0.198 µM and 6 µM, respectively. Further, the inhibition at Cannabinoid receptor 1 [2] was 92%. Moreover, the Ratio Ki in the assay listed under Homo sapiens is 30.

In the case of `Cc1ccc(CNC(=O)c2oc3ccc(S(=O)(=O)N4CC(C)CC(C)C4)cc3c2C)cc1` (stereo not drawn), the figures for the Ki on Cannabinoid receptor 1 [1] and at Cannabinoid receptor 2 were 0.079 µM and 19.1 µM, respectively. The compound also returned an inhibition on Cannabinoid receptor 1 [2] of 93%. In the assay filed under Homo sapiens, the Ratio Ki worked out at 242.

Consider `CCN(Cc1ccccc1)C(=O)c1oc2ccc(S(=O)(=O)N3CC(C)CC(C)C3)cc2c1C` (stereo not drawn), for which the inhibitory constant (Ki) at Cannabinoid receptor 1 [1] stood at 0.092 µM; at Cannabinoid receptor 2, 3.1 µM. The inhibition on Cannabinoid receptor 1 [2] came out at 98%. The Ratio Ki in the assay listed under Homo sapiens turned out to be 34. In addition, the EC50 (commonly the concentration at which the effect is half-maximal) at Cannabinoid receptor 1 [3] was 0.435 µM.

For the compound `Cc1c(C(=O)N(C)Cc2ccccc2)oc2ccc(S(=O)(=O)N3CC(C)CC(C)C3)cc12` (stereo not drawn), the Ki on Cannabinoid receptor 1 [1] is 0.059 µM; on Cannabinoid receptor 2, 6.6 µM. The compound also registered an inhibition on Cannabinoid receptor 1 [2] of 93%. The Ratio Ki in the assay filed under Homo sapiens was 112.

Consider `Cc1c(C(=O)NC2CCCCC2)oc2ccc(S(=O)(=O)N3CC(C)CC(C)C3)cc12` (stereo not drawn), for which the Ki on Cannabinoid receptor 1 [1] is 0.108 µM; at Cannabinoid receptor 2, 17.4 µM. The inhibition on Cannabinoid receptor 1 [2] was 95%. Also, the Ratio Ki in the assay listed under Homo sapiens amounted to 161.

For the compound `Cc1c(C(=O)NCc2cccnc2)oc2ccc(S(=O)(=O)N3CC(C)CC(C)C3)cc12` (stereo not drawn), the inhibition on Cannabinoid receptor 1 [2] was determined as 46%.

At Cannabinoid receptor 1 [2], `Cc1c(C(=O)NCc2ccccn2)oc2ccc(S(=O)(=O)N3CC(C)CC(C)C3)cc12` (stereo not drawn) returned an inhibition of 10%.

On Cannabinoid receptor 1 [2], `Cc1c(C(=O)N(C)Cc2ccccc2)oc2ccc(S(=O)(=O)N3CCCC3)cc12` registered an inhibition of 20%.

In the case of `CCN(CC)CCCNC(=O)c1oc2ccc(S(=O)(=O)N3CC(C)CC(C)C3)cc2c1C` (stereo not drawn), the inhibition on Cannabinoid receptor 1 [2] is under 1%.

With `Cc1c(C(=O)Nc2ccccc2Cl)oc2ccc(S(=O)(=O)N3CC(C)CC(C)C3)cc12` (stereo not drawn), the inhibition on Cannabinoid receptor 1 [2] was 44%.

With `Cc1c(C(=O)NC2CC2)oc2ccc(S(=O)(=O)N3CC(C)CC(C)C3)cc12` (stereo not drawn), the inhibition at Cannabinoid receptor 1 [2] amounted to 83%.

Turning to `COc1ccc(Cl)cc1NC(=O)c1oc2ccc(S(=O)(=O)N3CC(C)CC(C)C3)cc2c1C` (stereo not drawn), on Cannabinoid receptor 1 [2], the inhibition amounted to 12%.

For the compound `CCOc1ccccc1CNC(=O)c1oc2ccc(S(=O)(=O)N3CC(C)CC(C)C3)cc2c1C` (stereo not drawn), the Ki is 0.097 µM at Cannabinoid receptor 1 [1] and 9.9 µM at Cannabinoid receptor 2. This compound registered an inhibition at Cannabinoid receptor 1 [2] of 96%. Further, the Ratio Ki in the assay filed under Homo sapiens worked out at 102.

For the compound `Cc1c(C(=O)NCc2ccccc2)oc2ccc(S(=O)(=O)N3CC(C)CC(C)C3)cc12` (stereo not drawn), the figures for the Ki on Cannabinoid receptor 1 [1] and at Cannabinoid receptor 2 were 0.077 µM and 6.6 µM, respectively. For the same compound, the inhibition at Cannabinoid receptor 1 [2] stood at 92%. Further, in the assay filed under Homo sapiens, the Ratio Ki was 86.

At Cannabinoid receptor 1 [2], `CCN(CC)C(=O)c1oc2ccc(S(=O)(=O)N3CC(C)CC(C)C3)cc2c1C` (stereo not drawn) showed an inhibition of 89%.

Compound `Cc1c(C(=O)Nc2cccc(Cl)c2)oc2ccc(S(=O)(=O)N3CC(C)CC(C)C3)cc12` (stereo not drawn) returned an inhibition at Cannabinoid receptor 1 [2] of 70%.

Turning to `CCCCNC(=O)c1oc2ccc(S(=O)(=O)N3CC(C)CC(C)C3)cc2c1C` (stereo not drawn), the inhibition constant (Ki) at Cannabinoid receptor 1 [1] stood at 0.094 µM; on Cannabinoid receptor 2 it was 9.4 µM. The same compound came in with an inhibition at Cannabinoid receptor 1 [2] of 92%. Besides, the Ratio Ki in the assay filed under Homo sapiens was found to be 100.

Turning to `Cc1c(C(=O)NC2CCCC2)oc2ccc(S(=O)(=O)N3CC(C)CC(C)C3)cc12` (stereo not drawn), the inhibition constant Ki turned out to be 0.09 µM at Cannabinoid receptor 1 [1] and 7.4 µM on Cannabinoid receptor 2. In addition, at Cannabinoid receptor 1 [2], the inhibition was 95%. Further, the Ratio Ki in the assay filed under Homo sapiens came out at 82.

Take `Cc1c(C(=O)N(C)CCc2ccccc2)oc2ccc(S(=O)(=O)N3CC(C)CC(C)C3)cc12` (stereo not drawn): at Cannabinoid receptor 1 [1], the affinity, expressed as Ki, was 0.172 µM. The same compound showed an inhibition on Cannabinoid receptor 1 [2] of 92%.

`Cc1c(C(=O)N(C)CCC#N)oc2ccc(S(=O)(=O)N3CC(C)CC(C)C3)cc12` (stereo not drawn) came in with an inhibition at Cannabinoid receptor 1 [2] of 50%.

As to `Cc1c(C(=O)NCc2ccccc2Cl)oc2ccc(S(=O)(=O)N3CC(C)CC(C)C3)cc12` (stereo not drawn), the inhibition constant (Ki) at Cannabinoid receptor 1 [1] was determined as 0.058 µM; on Cannabinoid receptor 2 it was 4.8 µM. The same compound returned an inhibition on Cannabinoid receptor 1 [2] of 95%. In addition, the Ratio Ki in the assay filed under Homo sapiens is 83.

`Cc1cccc(NC(=O)c2oc3ccc(S(=O)(=O)N4CC(C)CC(C)C4)cc3c2C)c1C` (stereo not drawn) yielded an inhibition at Cannabinoid receptor 1 [2] of 84%.

Take `Cc1c(C(=O)NCc2ccc(F)cc2)oc2ccc(S(=O)(=O)N3CC(C)CC(C)C3)cc12` (stereo not drawn): the Ki at Cannabinoid receptor 1 [1] came to 0.062 µM; at Cannabinoid receptor 2, 4 µM. In addition, the inhibition on Cannabinoid receptor 1 [2] amounted to 95%. In addition, the Ratio Ki in the assay filed under Homo sapiens turned out to be 65.

Take `CCN(CC)S(=O)(=O)c1ccc2oc(C(=O)N(C)Cc3ccccc3)c(C)c2c1`: the inhibition on Cannabinoid receptor 1 [2] came out at 11%.

Take `COc1ccccc1CNC(=O)c1oc2ccc(S(=O)(=O)N3CC(C)CC(C)C3)cc2c1C` (stereo not drawn): the Ki on Cannabinoid receptor 1 [1] came out at 0.058 µM; at Cannabinoid receptor 2, 22.8 µM. In addition, on Cannabinoid receptor 1 [2], the inhibition is 97%. Besides, the Ratio Ki in the assay filed under Homo sapiens is 393.

On to `Cc1c(C(=O)NC2CCCc3ccccc32)oc2ccc(S(=O)(=O)N3CC(C)CC(C)C3)cc12` (stereo not drawn), for which the Ki at Cannabinoid receptor 1 [1] came out at 0.005 µM; at Cannabinoid receptor 2, 22.8 µM. This compound also registered an inhibition at Cannabinoid receptor 1 [2] of 96%. In addition, the Ratio Ki in the assay listed under Homo sapiens came out at 4560. On Cannabinoid receptor 1 [3], this compound yielded an EC50 of 0.0724 µM.
